From patent publication US20050175550A1, “Compositions for oral use” (priority 2000, published 2005)
Converted amounts (≈) assume the structure as drawn.

What was measured:
Experiment in all cases: MIC by agar plate dilution method on standard strains (Example 3)
Type in all cases: cell-based
Conditions in all cases: read-out: MIC
[1] = test system: Staphylococcus epidermidis ATCC12228
Experimental: (§1) Minimum growth-inhibiting concentrations of trifluoromethionine and other antibacterial drugs on standard strains were determined by an agar plate dilution method according to the standard method of Japanese Society of Chemotherapy.
(§2) Drug solutions at a concentration 10 times as high as the maximum applicable concentration were prepared as original solutions of test drugs given in Table 2 (as to solvents used for this purpose, reference should be made also to Table 2). Serial two-fold dilution series of the original solutions were prepared at desired stages, and 1 ml each of the diluted drug solutions was added to 9 ml of media given in Table 3 to prepare drug plates. Concentration range of the individual drugs used are as follows: trifluoromethionine: 400-0.025 μg/ml (15 stages), tetracycline: 100-0.025 μg/ml (13 stages), and clarithromycin: 100-0.025 μg/ml (13 stages).
(§3) • 1) Bacterial solutions stocked at −80° C. were inoculated on agar media (as to media used, reference should be made to Table 3), and then incubated at 37° C. overnight. When desired, subculturing was conducted once more on the same agar media (by overnight incubation at 37° C.). • 2) Colonies growing on the agar media were sampled by a platinum loop, suspended in liquid media (reference should be made to Table 3) and statically incubated at 37° C. for 18 hours (preculturing). • 3) Preculturing was continued up to McFarland 0.5 (McFarland 0.5=about 10^8 CFU/ml), and then the culture broths were diluted with Muellar Hinton Broth to make 10^6 CFU/ml. 5 μl each of the diluted solutions were inoculated on the above-mentioned drug plates by an inoculator Microplanter.
(§4) Thus, bacterial solutions at about 10^8 CFU/ml can be easily prepared by use of McFarland 0.5. Bacterial solutions at such a turbidity are commercially available, but can be easily prepared. McFarland 0.5 can be obtained by adding 0.5 ml of an aqueous 0.048 mol/l barium chloride solution to 99.5 ml of 1% v/v (0.18 mol/l) sulfuric acid. • 4) The individual bacteria were incubated at 37° C. for 18-20 hours and then the growth was determined in the same manner as in Example 2 to obtain minimum growth-inhibiting concentrations.

[2] = test system: Staphylococcus epidermidis ATCC29886
Experimental: as §1, §2, §3, §4

[3] = test system: Bacillus subtilis ATCC6633
Experimental: as §3, with “Drug solutions at a concentration 10 times as high as the maximum applicable concentration were prepared as original solutions of test drugs given in Table 2 (as to solvents used for this purpose, reference should be made also to Table 2). Serial two-fold dilution series of the original solutions were prepared at desired stages, and 1 ml each of the diluted drug solutions was added to 9 ml of media given in Table 3 to prepare drug plates. […] • 1)” for “• 1)”, “inoculator Microplanter. […] Thus, bacterial solutions at about 10^8 CFU/ml can be easily prepared by use of McFarland 0.5. Bacterial solutions at such a turbidity are commercially available, but can be easily prepared.” for “inoculator Microplanter.”

[4] = test system: Enterococcus faecalis ATCC29247
Experimental: as §3, with “Drug solutions at a concentration 10 times as high as the maximum applicable concentration were prepared as original solutions of test drugs given in Table 2 (as to solvents used for this purpose, reference should be made also to Table 2). Serial two-fold dilution series of the original solutions were prepared at desired stages, and 1 ml each of the diluted drug solutions was added to 9 ml of media given in Table 3 to prepare drug plates. […] • 1)” for “• 1)”, “inoculator Microplanter. […] Thus, bacterial solutions at about 10^8 CFU/ml can be easily prepared by use of McFarland 0.5. Bacterial solutions at such a turbidity are commercially available, but can be easily prepared.” for “inoculator Microplanter.”

[5] = test system: Enterococcus faecium ATCC19434
Experimental: as §3, with “Drug solutions at a concentration 10 times as high as the maximum applicable concentration were prepared as original solutions of test drugs given in Table 2 (as to solvents used for this purpose, reference should be made also to Table 2). Serial two-fold dilution series of the original solutions were prepared at desired stages, and 1 ml each of the diluted drug solutions was added to 9 ml of media given in Table 3 to prepare drug plates. […] • 1)” for “• 1)”, “inoculator Microplanter. […] Thus, bacterial solutions at about 10^8 CFU/ml can be easily prepared by use of McFarland 0.5. Bacterial solutions at such a turbidity are commercially available, but can be easily prepared.” for “inoculator Microplanter.”

[6] = test system: Escherichia coli ATCC25922
Experimental: as §3, with “Drug solutions at a concentration 10 times as high as the maximum applicable concentration were prepared as original solutions of test drugs given in Table 2 (as to solvents used for this purpose, reference should be made also to Table 2). Serial two-fold dilution series of the original solutions were prepared at desired stages, and 1 ml each of the diluted drug solutions was added to 9 ml of media given in Table 3 to prepare drug plates. […] • 1)” for “• 1)”, “inoculator Microplanter. […] Thus, bacterial solutions at about 10^8 CFU/ml can be easily prepared by use of McFarland 0.5. Bacterial solutions at such a turbidity are commercially available, but can be easily prepared.” for “inoculator Microplanter.”

[7] = test system: Escherichia coli ATCC35218
Experimental: as §3, with “Drug solutions at a concentration 10 times as high as the maximum applicable concentration were prepared as original solutions of test drugs given in Table 2 (as to solvents used for this purpose, reference should be made also to Table 2). Serial two-fold dilution series of the original solutions were prepared at desired stages, and 1 ml each of the diluted drug solutions was added to 9 ml of media given in Table 3 to prepare drug plates. […] • 1)” for “• 1)”, “inoculator Microplanter. […] Thus, bacterial solutions at about 10^8 CFU/ml can be easily prepared by use of McFarland 0.5. Bacterial solutions at such a turbidity are commercially available, but can be easily prepared.” for “inoculator Microplanter.”

[8] = test system: Haemophilus influenzae ATCC33391
Experimental: as §3, with “Drug solutions at a concentration 10 times as high as the maximum applicable concentration were prepared as original solutions of test drugs given in Table 2 (as to solvents used for this purpose, reference should be made also to Table 2). Serial two-fold dilution series of the original solutions were prepared at desired stages, and 1 ml each of the diluted drug solutions was added to 9 ml of media given in Table 3 to prepare drug plates. […] • 1)” for “• 1)”, “inoculator Microplanter. […] Thus, bacterial solutions at about 10^8 CFU/ml can be easily prepared by use of McFarland 0.5. Bacterial solutions at such a turbidity are commercially available, but can be easily prepared.” for “inoculator Microplanter.”

[9] = test system: Haemophilus influenzae ATCC33533
Experimental: as §3, with “Drug solutions at a concentration 10 times as high as the maximum applicable concentration were prepared as original solutions of test drugs given in Table 2 (as to solvents used for this purpose, reference should be made also to Table 2). Serial two-fold dilution series of the original solutions were prepared at desired stages, and 1 ml each of the diluted drug solutions was added to 9 ml of media given in Table 3 to prepare drug plates. […] • 1)” for “• 1)”, “inoculator Microplanter. […] Thus, bacterial solutions at about 10^8 CFU/ml can be easily prepared by use of McFarland 0.5. Bacterial solutions at such a turbidity are commercially available, but can be easily prepared.” for “inoculator Microplanter.”

[10] = test system: Haemophilus influenzae ATCC49247
Experimental: as §3, with “Drug solutions at a concentration 10 times as high as the maximum applicable concentration were prepared as original solutions of test drugs given in Table 2 (as to solvents used for this purpose, reference should be made also to Table 2). Serial two-fold dilution series of the original solutions were prepared at desired stages, and 1 ml each of the diluted drug solutions was added to 9 ml of media given in Table 3 to prepare drug plates. […] • 1)” for “• 1)”, “inoculator Microplanter. […] Thus, bacterial solutions at about 10^8 CFU/ml can be easily prepared by use of McFarland 0.5. Bacterial solutions at such a turbidity are commercially available, but can be easily prepared.” for “inoculator Microplanter.”

[11] = test system: Haemophilus influenzae ATCC49766
Experimental: as §3, with “Drug solutions at a concentration 10 times as high as the maximum applicable concentration were prepared as original solutions of test drugs given in Table 2 (as to solvents used for this purpose, reference should be made also to Table 2). Serial two-fold dilution series of the original solutions were prepared at desired stages, and 1 ml each of the diluted drug solutions was added to 9 ml of media given in Table 3 to prepare drug plates. […] • 1)” for “• 1)”, “inoculator Microplanter. […] Thus, bacterial solutions at about 10^8 CFU/ml can be easily prepared by use of McFarland 0.5. Bacterial solutions at such a turbidity are commercially available, but can be easily prepared.” for “inoculator Microplanter.”

[12] = test system: Klebsiella pneumoniae ATCC700603
Experimental: as §3, with “Drug solutions at a concentration 10 times as high as the maximum applicable concentration were prepared as original solutions of test drugs given in Table 2 (as to solvents used for this purpose, reference should be made also to Table 2). Serial two-fold dilution series of the original solutions were prepared at desired stages, and 1 ml each of the diluted drug solutions was added to 9 ml of media given in Table 3 to prepare drug plates. […] • 1)” for “• 1)”, “inoculator Microplanter. […] Thus, bacterial solutions at about 10^8 CFU/ml can be easily prepared by use of McFarland 0.5. Bacterial solutions at such a turbidity are commercially available, but can be easily prepared.” for “inoculator Microplanter.”

[13] = test system: Micrococcus luteus ATCC9341
Experimental: as §3, with “Drug solutions at a concentration 10 times as high as the maximum applicable concentration were prepared as original solutions of test drugs given in Table 2 (as to solvents used for this purpose, reference should be made also to Table 2). Serial two-fold dilution series of the original solutions were prepared at desired stages, and 1 ml each of the diluted drug solutions was added to 9 ml of media given in Table 3 to prepare drug plates. […] • 1)” for “• 1)”, “inoculator Microplanter. […] Thus, bacterial solutions at about 10^8 CFU/ml can be easily prepared by use of McFarland 0.5. Bacterial solutions at such a turbidity are commercially available, but can be easily prepared.” for “inoculator Microplanter.”

[14] = test system: Moraxella (Branhamella) catarrhalis ATCC25238
Experimental: as §3, with “Drug solutions at a concentration 10 times as high as the maximum applicable concentration were prepared as original solutions of test drugs given in Table 2 (as to solvents used for this purpose, reference should be made also to Table 2). Serial two-fold dilution series of the original solutions were prepared at desired stages, and 1 ml each of the diluted drug solutions was added to 9 ml of media given in Table 3 to prepare drug plates. […] • 1)” for “• 1)”, “inoculator Microplanter. […] Thus, bacterial solutions at about 10^8 CFU/ml can be easily prepared by use of McFarland 0.5. Bacterial solutions at such a turbidity are commercially available, but can be easily prepared.” for “inoculator Microplanter.”

MIC [1]: 0.2 µg/mL (≈ 0.267 µM)
MIC [2]: 0.39 µg/mL (≈ 0.521 µM)
MIC [3]: 0.1 µg/mL (≈ 0.134 µM)
MIC [4]: 1.56 µg/mL (≈ 2.09 µM)
MIC [5]: 1.56 µg/mL (≈ 2.09 µM)
MIC [6]: 50 µg/mL (≈ 66.8 µM)
MIC [7]: 25 µg/mL (≈ 33.4 µM)
MIC [8]: 6.25 µg/mL (≈ 8.36 µM)
MIC [9]: 3.13 µg/mL (≈ 4.18 µM)
MIC [10]: 6.25 µg/mL (≈ 8.36 µM)
MIC [11]: 6.25 µg/mL (≈ 8.36 µM)
MIC [12]: > 100 µg/mL
MIC [13]: 0.05 µg/mL (≈ 0.0668 µM)
MIC [14]: 0.1 µg/mL (≈ 0.134 µM)
Structure (SMILES): CC[C@H]1OC(=O)[C@H](C)[C@@H](O[C@H]2C[C@@](C)(OC)[C@@H](O)[C@H](C)O2)[C@H](C)[C@@H](O[C@@H]2O[C@H](C)C[C@H](N(C)C)[C@H]2O)[C@](C)(OC)C[C@@H](C)C(=O)[C@H](C)[C@@H](O)[C@]1(C)O [CAM, Clarithromycin]
